Experimental data: ChEMBL document CHEMBL4725351, “Cyclic Derivative of Host-Defense Peptide IDR-1018 Improves Proteolytic Stability, Suppresses Inflammation, and Enhances In Vivo Activity” (J Med Chem, 2020)
Activity calls are given as the source filed them. The rule behind the calls is not given here. Where a SMILES comes first, the peptide text is derived from it. Bridges are numbered along the chain shown (N, C = ends).

Columns and labels:
Staphylococcus aureus [1] = test: Antibiofilm activity against 24 hrs preformed methicillin-resistant Staphylococcus aureus SAP0017 biofilm assessed as reduction in biofilm viability at 100 ug/ml by TTC assay; type: functional, organism-based; conditions: dose 100.0 µg/ml
Staphylococcus aureus [2] = test: Antibiofilm activity against 24 hrs preformed methicillin-resistant Staphylococcus aureus USA300 LAC biofilm assessed as reduction in biofilm viability at 100 ug/ml by TTC assay; type: functional, organism-based; conditions: dose 100.0 µg/ml
Staphylococcus aureus [3] = test: Antibiofilm activity against 24 hrs preformed methicillin-resistant Staphylococcus aureus USA300 LAC biofilm assessed as reduction in biofilm viability at 7.2 to 30.3 uM by TTC assay relative to control; type: functional; conditions: dose microM 7.2-30.3
Staphylococcus aureus [4] = test: Antibiofilm activity against 24 hrs preformed methicillin-resistant Staphylococcus aureus SAP0017 biofilm assessed as reduction in biofilm viability at 7.2 to 30.3 uM by TTC assay relative to control; type: functional; conditions: dose microM 7.2-30.3

Molecule | Activity (Staphylococcus aureus [1]) | Activity (Staphylococcus aureus [2]) | Activity (Staphylococcus aureus [3]) | Activity (Staphylococcus aureus [4])
CN[C@H](CC(C)C)C(=O)N[C@H]1C(=O)N[C@@H](CC(N)=O)C(=O)N[C@H]2C(=O)N[C@H]3C(=O)N[C@H](C(=O)N[C@H](C(=O)O)c4cc(O)cc(O)c4-c4cc3ccc4O)[C@H](O)c3ccc(c(Cl)c3)Oc3cc2cc(c3O[C@@H]2O[C@H](CO)[C@@H](O)[C@H](O)[C@H]2O[C@H]2C[C@](C)(N)[C@H](O)[C@H](C)O2)Oc2ccc(cc2Cl)[C@H]1O [VANCOMYCIN] | inactive | inactive |  | 
CC[C@H](C)[C@@H]1NC(=O)[C@H](CCCNC(=N)N)NC(=O)[C@H](C(C)C)NC(=O)[C@H](C)NC(=O)[C@H](C(C)C)NC(=O)[C@H]([C@@H](C)CC)NC(=O)[C@H](CC(C)C)NC(=O)[C@H](CCCNC(=N)N)NC(=O)[C@H](C(C)C)NC(=O)CC[C@@H](C(N)=O)NC(=O)[C@H](CCCNC(=N)N)NC(=O)[C@H](CCCNC(=N)N)NC(=O)[C@H](Cc2c[nH]c3ccccc23)NC1=O (VRLIVAVRIWRRE-NH2; lactam N-13) |  |  | 70% | 70%
H-VRLIVAVRIWRR-NH2 |  |  | 70% | 70%
